EC50 data for 1 compound are collected here from PMC8184619 (Molecular immunology, 2021).

The structures appear in SMILES notation.

Common to all, as to format: cell-based
The subject of assay [1] is R6C12 TCR-transduced CD8+ Jurkat T cells.
Assay [2] concerns SILv44 TCR-transduced CD8+ Jurkat T cells.
Assay [3] deals with T4H2 TCR-transduced CD8+ Jurkat T cells.

Regarding `CC[C@H](C)[C@H](N)C(=O)N[C@@H](CC(C)C)C(=O)N[C@@H](CC(=O)O)C(=O)N[C@@H](CCC(N)=O)C(=O)N[C@H](C(=O)N1CCC[C@H]1C(=O)N[C@@H](Cc1ccccc1)C(=O)N[C@@H](CO)C(=O)N[C@H](C(=O)O)C(C)C)C(C)C` [T2Leu], the EC50 in assay [1] turned out to be 11000 ± 3000 nM; in assay [2] it was 1400 ± 300 nM; in assay [3] it was 300 ± 100 nM.
